Assay results: PubChem BioAssay (NCI)
Several values for one entry are separate records, joined by “and”; a condition that tells them apart may be missing. Equal entries are not always repeated.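 Grown in 96-well plates, cells were treated for 48 hours with each compound at five concentrations. Insufficient inhibition: endpoint recorded as highest concentration tested. Abbreviation: GI50, concentration required for 50% inhibition of growth. TGI marks complete inhibition of growth.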

Legend:
Assay in all cases: NCI-60 cell line screen, 48 h
COLO 205 colon = test system: COLO 205 colon
EKVX NSCLC = test system: EKVX NSCLC
HCT-15 colon = test system: HCT-15 colon
HOP-62 NSCLC = test system: HOP-62 NSCLC
LOX IMVI melanoma = test system: LOX IMVI melanoma
M14 melanoma = test system: M14 melanoma
MDA-MB-231 breast = test system: MDA-MB-231 breast
NCI/ADR-RES ovarian = test system: NCI/ADR-RES ovarian
RPMI-8226 leukemia = test system: RPMI-8226 leukemia
SK-MEL-2 melanoma = test system: SK-MEL-2 melanoma

Row | SMILES | GI50 (COLO 205 colon) | TGI (COLO 205 colon) | GI50 (EKVX NSCLC) | TGI (EKVX NSCLC) | GI50 (HCT-15 colon) | GI50 (HOP-62 NSCLC) | TGI (HOP-62 NSCLC) | GI50 (LOX IMVI melanoma) | TGI (LOX IMVI melanoma) | GI50 (M14 melanoma) | TGI (M14 melanoma) | GI50 (MDA-MB-231 breast) | TGI (MDA-MB-231 breast) | GI50 (NCI/ADR-RES ovarian) | TGI (NCI/ADR-RES ovarian) | GI50 (RPMI-8226 leukemia) | TGI (RPMI-8226 leukemia) | TGI (SK-MEL-2 melanoma) | TGI (HCT-15 colon) | GI50 (SK-MEL-2 melanoma)
1 | CC(=O)c1cc2c(cc1Nc1c3ccccc3nc3occ(Cl)c13)OCO2 | 0.391 µM | > 37.9 µM | 0.181 µM | > 100 µM | 0.328 µM | 0.291 µM | > 65.1 µM | 0.435 µM | > 100 µM | 0.316 µM | 37.9 µM | 0.283 µM | 0.613 µM | 0.236 µM | 1.47 µM | 0.0539 µM | 0.139 µM | > 100 µM | – | –
2 | O=C([O][Hg][CH2]C1COC([CH2][Hg][O]C(=O)c2ccccc2)CO1)c1ccccc1 (stereo not given) | 1.98 µM and 1.07 µM | 4.25 µM and 5.21 µM | 20.7 µM and 19.5 µM | 35.8 µM and 34.9 µM | 2.83 µM and 1.63 µM | 19.2 µM and 20.7 µM | 37.9 µM and 56.4 µM | 1.89 µM and 1.66 µM | 4.85 µM and 3.11 µM | 8.68 µM and 2.52 µM | 19.8 µM and 4.89 µM | 19.3 µM and 4.48 µM | 41.9 µM and 16.4 µM | 10.9 µM and 1.74 µM | 28.9 µM and 4.76 µM | 1.97 µM and 2.14 µM | 8.46 µM and 6.07 µM | 25.7 µM and 3.75 µM | 5.67 µM and 3.15 µM | 12.8 µM and 1.84 µM
3 | C[C@@H]1CC[C@@H]2[C@@H]1[C@H](OC(=O)/C=C/c1ccccc1)[C@]1(C3CCCCC3)C[C@@H](NC(=O)CO)[C@@]2(C)O1 | 16.6 µM | 33.5 µM | 13.5 µM | 27.5 µM | 15.8 µM | 17.4 µM | 33.5 µM | 17.8 µM | 32.5 µM | 18.6 µM | 35.6 µM | 18.9 µM | 35.4 µM | 12.9 µM | 32.1 µM | 20.8 µM | 44.4 µM | 32.8 µM | 33.2 µM | 16.8 µM
4 | CN(C)c1ncnc2c1nnn2C1OC(CO)C(O)C1O (stereo not given) | 0.194 µM | 0.769 µM | 2.33 µM | > 100 µM | 0.229 µM | 0.405 µM | > 100 µM | 0.156 µM | > 100 µM | 0.0515 µM | 1.14 µM | 0.524 µM | > 100 µM | 0.233 µM | > 100 µM | 0.16 µM | 1.1 µM | 0.773 µM | > 100 µM | 0.104 µM
5 | CCOC(=O)c1c2c(n(Cc3ccccc3)c1C)-c1ccccc1C(=O)C2=O | 15.6 µM | 30.6 µM | 11.9 µM | 29.2 µM | 15.3 µM | 13.7 µM | 27.1 µM | 11.8 µM | 24.6 µM | 11.9 µM | 24.5 µM | 13.1 µM | 27.9 µM | 9.42 µM | 27.4 µM | 13.2 µM | 62.2 µM | 40.8 µM | 30.8 µM | 18.4 µM
6 | O=C(CF)N(O)c1ccc(/C=C/c2ccccc2)cc1 | 5.83 µM | > 100 µM | 15.8 µM | > 100 µM | 13.3 µM | 5.91 µM | 32.2 µM | 2.53 µM | > 100 µM | 3.82 µM | > 100 µM | 21.8 µM | > 100 µM | 2.52 µM | > 100 µM | 21.3 µM | > 100 µM | > 100 µM | > 100 µM | 27.1 µM
7 | O=C1c2ccccc2C(=Cc2ccccc2)c2ccccc21 | 2.2 µM | 5.14 µM | 2.93 µM | 37.9 µM | 2.16 µM | 2.62 µM | 10.2 µM | 2.32 µM | 10.7 µM | 2.21 µM | 7.86 µM | 2.78 µM | 35.9 µM | 1.6 µM | 6.62 µM | 3 µM | 14.6 µM | 4.95 µM | 21.8 µM | 1.78 µM
8 | CN1CCN(Cc2ccc(NC(=O)c3cncc(C#Cc4cncc5ncccc45)c3)cc2C(F)(F)F)CC1 | 1.11 µM | 13.2 µM | 3.91 µM | 16.8 µM | 3.9 µM | 2.53 µM | 12 µM | 0.794 µM | 2.11 µM | 0.961 µM | 5.09 µM | 1.07 µM | 3.05 µM | 5.34 µM | 18.9 µM | 3.59 µM | 22.2 µM | 2.48 µM | 14.7 µM | 0.542 µM
9 | CC(C)(C)c1[nH]cnc1/C=c1\[nH]c(=O)/c(=C/c2ccccc2)[nH]c1=O | 0.013 µM | 0.101 µM | 0.0482 µM | 35.5 µM | < 0.01 µM | < 0.01 µM | 25.8 µM | < 0.0121 µM | 17.7 µM | < 0.01 µM | 17.1 µM | 0.023 µM | 30.9 µM | < 0.01 µM | > 100 µM | < 0.0176 µM | 13.2 µM | 30.7 µM | 13.5 µM | < 0.0108 µM
10 | CC(=O)OCC(=O)O[C@@H]1C[C@]2(C(C)C)O[C@@]1(C)[C@@H]1CC[C@@H](C)[C@H]1[C@@H]2OC(=O)/C=C/c1ccccc1 | 24.2 µM | 84.6 µM | 13.8 µM | 59.1 µM | 17.8 µM | 17.3 µM | 45.2 µM | 15.5 µM | 32.7 µM | 26.3 µM | > 100 µM | 14 µM | 33.4 µM | 0.143 µM | 27.5 µM | 18.8 µM | > 100 µM | 39.1 µM | > 100 µM | 17.3 µM
11 | CC/C=C\C/C=C\C[C@H](O)C/C=C1/C(=O)C=C[C@@H]1C/C=C\CCCC(=O)O | 3.78 µM | 10.9 µM | 14.5 µM | 30.5 µM | 3.47 µM | 2.77 µM | 7.4 µM | 1.74 µM | 3.74 µM | 2.82 µM | 12 µM | 7.94 µM | 44.4 µM | 3.24 µM | > 100 µM | 2.63 µM | 12.1 µM | 13.2 µM | 15.6 µM | 3.33 µM
12 | O=C(CN1CCN(c2ccc(Cl)cc2)CC1)N1CCN(c2nnc(-c3ccc(Cl)cc3)c(-c3ccc(Cl)cc3)n2)CC1 | 55.3 µM | > 100 µM | 21.5 µM | > 100 µM | > 100 µM | 40.9 µM | > 100 µM | 14.5 µM | 76.4 µM | 28.2 µM | > 100 µM | 50.8 µM | > 100 µM | 34 µM | > 100 µM | > 100 µM | > 100 µM | > 100 µM | > 100 µM | 51.5 µM
13 | Cc1cc(=O)[nH]o1 | – | > 100 µM | – | > 100 µM | – | – | > 100 µM | – | > 100 µM | – | > 100 µM | – | > 100 µM | – | > 100 µM | – | > 100 µM | > 100 µM | > 100 µM | –
14 | COc1ccc2c(c1)C(=O)c1c-2c(Nc2ccc(C(C)=O)cc2)nc2ccccc12 | > 100 µM | > 100 µM | 25.2 µM | > 100 µM | > 100 µM | 3.96 µM | 16.2 µM | 54.7 µM | > 100 µM | 64.6 µM | > 100 µM | 11.4 µM | 29.5 µM | 41.7 µM | > 100 µM | 89.5 µM | > 100 µM | > 100 µM | > 100 µM | 97.7 µM
15 | O=c1cc(N2CCNCC2)oc2c(-c3ccccc3)cccc12 | 11.3 µM | 27.8 µM | 19.8 µM | > 100 µM | 34.7 µM | 65.4 µM | > 100 µM | 31.7 µM | > 100 µM | 15.6 µM | 29.1 µM | 24.1 µM | > 100 µM | > 100 µM | > 100 µM | 15.3 µM | 38.5 µM | > 100 µM | > 100 µM | 51.5 µM
16 | COc1ccc2c(c1)C(=O)C(=O)c1cc(O)c(OC)c(OC)c1-2 | 1.89 µM | 3.54 µM and 3.74 µM | 0.457 µM | 2.09 µM and 1.68 µM | 1.73 µM | 1.15 µM | 1.72 µM and 2.58 µM | 1.48 µM | 1.83 µM and 3.16 µM | 1.73 µM | 1.71 µM and 3.11 µM | 2.1 µM | 1.91 µM and 3.87 µM | 1.84 µM | 2.41 µM and 5.22 µM | 1.56 µM | 2.67 µM and 3.81 µM | 1.62 µM and 3.42 µM | 1.78 µM and 3.53 µM | 1.95 µM
17 | O=C(O)CCC(=O)c1ccc2ccc3cccc4ccc1c2c34 | – | > 100 µM | – | > 100 µM | – | – | > 100 µM | – | > 100 µM | – | > 100 µM | – | > 100 µM | – | > 100 µM | – | > 100 µM | > 100 µM | > 100 µM | –
18 | O=P(NC12CC3CC(CC(C3)C1)C2)(N1CC1)N1CC1 | – | > 100 µM | – | > 100 µM | – | – | > 100 µM | – | > 100 µM | – | > 100 µM | – | > 100 µM | – | > 100 µM | – | > 100 µM | > 100 µM | > 100 µM | –
19 | C=CC(C)(O)/C=C/C=C(\C)C(CC1OC1(C)C)OC(=O)/C(C)=C\C (stereo not given) | – | > 100 µM | – | > 100 µM | – | – | > 100 µM | – | > 100 µM | – | > 100 µM | – | > 100 µM | – | > 100 µM | – | > 100 µM | > 100 µM | > 100 µM | –
20 | Cn1c(O)c(C(/C=C/c2ccccc2)=NCCN=C(/C=C/c2ccccc2)c2c(O)n(C)c(=O)n(C)c2=O)c(=O)n(C)c1=O | 17.3 µM | > 50 µM | 25.8 µM | > 50 µM | 14.5 µM | 23.4 µM | > 50 µM | 17.1 µM | > 50 µM | 15 µM | > 50 µM | 20.9 µM | > 50 µM | 15.3 µM | > 50 µM | 9.3 µM | 30.4 µM | > 50 µM | > 50 µM | 27.3 µM
21 | O=c1c2ccccc2n2n1CC(O)C2 (stereo not given) | – | > 100 µM | – | > 100 µM | – | – | > 100 µM | – | > 100 µM | – | > 100 µM | > 100 µM | > 100 µM | > 100 µM | > 100 µM | – | > 100 µM | > 100 µM | > 100 µM | –
